Data taken from patent publication US20190142046A1, “FUNCTIONALLY REINFORCED DESALTED NUTRITIONAL COMPOSITIONS FROM HALOPHYTES AND PREPARATION METHOD THEREOF” (PHYTO CORPORATION, priority 2016, published 2019).
Where a name gives a salt, the structure may show the parent alone.

Assays:
Assay type in all cases: cell-based
SREBP-1 = assay: Real-Time RT-PCR, SREBP-1 gene expression in 3T3-L1; settings: 1, 2, 5 and 10 μM; largest decrease at 10 μM
Protocol: (§1) Real-Time RT-PCR was performed to investigate the effect of trans-ferulic acid (TFA) on transcription factors involved in lipid metabolism at mRNA expression levels. Total RNA was isolated from a control group and each test group treated with various concentrations of TFA (easy-Blue, iNtRon, INC, Daejeon, Korea) and diluted at the same concentration, and cDNA synthesis was carried out using the diluted RNA samples (cDNA reverse transcription kits, Applied Biosystems, CA, USA).
(§2) In brief, after 3T3-L1 preadipocytes were treated with TFA at various concentrations, namely 1, 2, 5 and 10 μM), Real-time qRT-PCR was performed using the primers of Table 9 (CFX96 real-time PCR detection system, Bio-Rad Laboratories, Hercules, Calif., USA). The PCR conditions included denaturation at […] for 3 min, 45 cycles of 95° C. for 5 sec and 60° C. for 20 sec, and heating up to 95° C. (by increasing the temperature at a rate of 0.2° C./15 sec) to terminate the reaction. […] Therefore, the Desalted Salicornia Powder (DSP) containing TFA as an effective component may effectively reduce body fat by inhibiting adipocyte differentiation and lipid droplet formation and may eventually lead to a decrease in body weight, and thus has the potential to be applied as a functional food and feedstuff for preventing and/or treating obesity.

C/EBPα = assay: Real-Time RT-PCR, C/EBPα gene expression in 3T3-L1; settings: 5 μM and 10 μM
Protocol: as §1, §2

3T3-L1 cells [1] = assay: Intracellular triglyceride formation during adipocyte differentiation
Protocol: The major marker component of the desalted Salicornia powder, trans-ferulic acid (TFA), was evaluated for its inhibitory effect on adipocyte differentiation using 3T3-L1 cells as an in-vitro model of adipocyte differentiation. 3T3-L1 preadipocytes were checked for contamination every eight hours to improve confidence in the experiment. Primary preadipocytes were propagated, and were then induced to differentiate with a culture medium containing 3-isobutyl-1-methylxanthine (IBMX), dexamethasone and insulin. During the differentiation induction, the medium was changed twice every three days. In addition, as a marker for adipocyte differentiation, intracellular triglyceride formation was investigated.

FAS = assay: Real-Time RT-PCR, FAS gene expression in 3T3-L1; settings: 1, 2, 5 and 10 μM; largest decrease at 10 μM
Protocol: as §1, §2

PPARγ = assay: Real-Time RT-PCR, PPARγ gene expression in 3T3-L1; settings: 10 μM
Protocol: as §1, §2

3T3-L1 cells [2] = assay: Oil Red O staining of lipid droplets during adipocyte differentiation
Protocol: The major marker component of the desalted Salicornia powder, trans-ferulic acid (TFA), was evaluated for its inhibitory effect on adipocyte differentiation using 3T3-L1 cells as an in-vitro model of adipocyte differentiation. 3T3-L1 preadipocytes were checked for contamination every eight hours to improve confidence in the experiment. Primary preadipocytes were propagated, and were then induced to differentiate with a culture medium containing 3-isobutyl-1-methylxanthine (IBMX), dexamethasone and insulin. During the differentiation induction, the medium was changed twice every three days. After being induced to differentiate, 3T3-L1 cells were subjected to Oil Red O staining to detect the presence of intracellular lipid droplets. First, the medium was discarded from each well, and cells were fixed with 4% paraformaldehyde. Subsequently, cells were washed with 100% 1,2-propanediol dehydration solution for 5 min and then stained with Oil Red O stain solution. After Oil Red O staining, 85% 1,2-propanediol stain differential solution was added to each well for cell washing. Finally, distilled water was added to each well to prevent stained cells from drying, and cells were observed under a microscope to determine lipid accumulation.

COc1cc(/C=C/C(=O)O)ccc1O [TFA, trans-ferulic acid]
SREBP-1 gene expression compared to differentiation-induced control (MDI) (SREBP-1): reduced in a dosage-dependent manner | C/EBPα gene expression compared to differentiation-induced control (MDI) (C/EBPα): significantly reduced in a dosage-dependent manner | triglyceride formation compared to differentiation-induced control (MDI) (3T3-L1 cells [1]; 5 μM and 10 μM): remarkably significantly inhibited | intracellular triglyceride formation (3T3-L1 cells [1]; 1, 2, 5 and 10 μM): reduced intracellular triglyceride formation in a dosage-dependent manner | FAS gene expression compared to differentiation-induced control (MDI) (FAS): reduced in a dosage-dependent manner | PPARγ gene expression (PPARγ): significantly reduced | inhibition of lipid droplet formation compared to differentiation-induced control (MDI) (3T3-L1 cells [2]; 5 μM and 10 μM): remarkably significant inhibition | adipocyte differentiation and lipid droplet formation (Oil Red O) (3T3-L1 cells [2]; within the used concentrations): inhibit adipocyte differentiation and lipid droplet formation in a dosage-dependent manner
